Here are results for 57 compounds from US20240246980A1, “MODULATORS OF MAS-RELATED G-PROTEIN RECEPTOR D AND RELATED PRODUCTS AND METHODS” (Escient Pharmaceuticals, Inc., priority 2022, published 2024).

The assay concerns the target human MRGPRD (Homo sapiens, UniProt Q8TDS7). In words: MRGPRD antagonist activity, IP-One HTRF assay in CHO cells stably expressing human MRGPRD (versus 100 μM β-Alanine agonist). It counts as cell-based. Here is the method:
Chinese Hamster Ovary (CHO) cells stably expressing human MRGPRD (Eurofins, San Diego CA) were plated in a 384-well plate at 20,000 cells per well in 12 μL of Optimem (Fisher Scientific 11-058-021). Plates were kept in the incubator at 37° C. overnight. Antagonists were solubilized at a concentration of 10 mM in DMSO, and the agonists were solubilized to stock concentrations of either 50 mM in H2O (β-Alanine) or 10 mM in DMSO (all others) and then diluted in assay buffer (final concentrations of 5.7 mM Tris-HCl, 43 mM NaCl, 50 mM LiCl, pH=8). The concentration of DMSO was normalized across the plate. Antagonists were added to the plate using a Tecan D300 Digital Dispenser at nanoliter/picoliter volumes and 2 μL of agonists in assay buffer were added to each well for a final assay volume of 14 μL. Plates were covered and incubated for 1 h at 37° C. and then for 1 h at room temperature. IP-1 standards and HTRF detection reagents were added according to an IP-One-Gq Kit purchased from Cisbio (part number 62IPAPEJ) and incubated in the dark for 1 h at room temperature. Assay plates were read on either a Molecular Devices SpectraMax iD5 plate reader or a BMG ClarioStar plate reader. The HTRF ratio was calculated form the raw data and graphed using GraphPad Prism to calculate IC50 values. Data are expressed as average IC50 values and average percent antagonism calculated as a percent of the maximum efficacy response. For these studies, the variability of the data was assessed by determining the standard error of mean (SEM).
The activity ranges are denoted as follows: “+++++” denotes antagonist activity <100 nM; “++++” denotes antagonist activity between 100 and 500 nM; “+++” denotes activity between 500 and 1000 nM; “++” denotes activity between 1000 and 3000 nM; and “+” denotes activity >3000 nM.
(In general: Time-resolved FRET reads energy transfer from a long-lived donor to a nearby acceptor.)

human MRGPRD, sequence (Q8TDS7 whole entry): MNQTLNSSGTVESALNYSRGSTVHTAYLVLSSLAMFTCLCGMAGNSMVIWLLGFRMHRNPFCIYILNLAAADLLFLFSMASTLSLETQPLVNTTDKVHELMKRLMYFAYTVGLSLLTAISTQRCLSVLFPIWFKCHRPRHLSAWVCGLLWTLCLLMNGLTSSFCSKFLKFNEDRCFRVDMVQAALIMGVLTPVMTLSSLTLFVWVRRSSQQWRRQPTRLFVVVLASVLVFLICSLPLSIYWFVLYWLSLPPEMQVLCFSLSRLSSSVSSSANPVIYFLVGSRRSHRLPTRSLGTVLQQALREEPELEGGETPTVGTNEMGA

The IC50 is the concentration that inhibits the measured activity by half. A higher IC50 goes with weaker potency in that assay. On to `CCOc1ccccc1NC(=O)N1CCC[C@@H](c2nc(-c3cccc(OC)c3)c3ccccn23)C1` [Compound 5-14], for which the IC50 lay within 100 to 500 nM.

As for `COc1cccc(-c2nc([C@@H]3CCCN(C(=O)Nc4cccc(C(C)=O)c4)C3)n3ccccc23)c1` [Compound 5-15], the IC50 is under 100 nM. For `COc1cccc(-c2nc([C@@H]3CCCN(C(=O)Nc4ccc(-n5cccn5)cc4)C3)n3ccccc23)c1` [Compound 5-16] the value was under 100 nM; for `COc1cccc(-c2nc([C@@H]3CCCN(C(=O)NCc4ccc(N(C)C)cc4)C3)n3ccccc23)c1` [Compound 5-17], under 100 nM; for `COc1cccc(-c2nc([C@@H]3CCCN(C(=O)Nc4cccc(C(=O)N(C)C)c4)C3)n3ccccc23)c1` [Compound 5-18], under 100 nM. The figure for `COc1cccc(-c2nc(C3CCCN(C(=O)Nc4cccc(N(C)C)c4)C3)n3ncccc23)c1` (stereo not drawn) [Compound 5-19] is under 100 nM; for `COc1cccc(-c2nc(C3CCCN(C(=O)Nc4ccc(N(C)C)cc4)C3)n3ncccc23)c1` (stereo not drawn) [Compound 5-20] it is under 100 nM. For `COc1cccc(-c2nc([C@@H]3CCCN(C(=O)Nc4ccc(OC(F)(F)F)cc4)C3)n3ccccc23)c1` [Compound 5-21] the value was 500 to 1000 nM. Compound `COc1cccc(-c2nc([C@@H]3CCCN(C(=O)Nc4ccc(-c5ccccc5)cc4)C3)n3ccccc23)c1` [Compound 5-22] came in with an IC50 of 1000 to 3000 nM. The figure for `COc1cccc(-c2nc([C@@H]3CCCN(C(=O)Nc4ccc(C(F)(F)F)cc4)C3)n3ccccc23)c1` [Compound 5-23] is 500 to 1000 nM.

`COc1cccc(-c2nc([C@@H]3CCCN(C(=O)Nc4ccc(C(C)=O)cc4)C3)n3ccccc23)c1` [Compound 5-24] came in with an IC50 of under 100 nM. The figure for `COc1cccc(-c2nc([C@@H]3CCCN(C(=O)Nc4ccc(C)cc4C)C3)n3ccccc23)c1` [Compound 5-25] is under 100 nM; for `COc1cccc(-c2nc([C@@H]3CCCN(C(=O)Nc4cccc5c4CCC5)C3)n3ccccc23)c1` [Compound 5-26] it is 100 to 500 nM; for `COc1cccc(-c2nc([C@@H]3CCCN(C(=O)Nc4ccc5c(c4)OCO5)C3)n3ccccc23)c1` [Compound 5-27] it is under 100 nM. In turn, `COc1cccc(-c2nc([C@@H]3CCCN(C(=O)Nc4ccccc4CO)C3)n3ccccc23)c1` [Compound 5-28] had an IC50 of under 100 nM. Compound `COc1cccc(-c2nc([C@@H]3CCCN(C(=O)NCCc4nc(C)cs4)C3)n3ccccc23)c1` [Compound 5-30] came in with an IC50 of 100 to 500 nM.

The compound `COc1cccc(-c2nc([C@@H]3CCCN(C(=O)Nc4cccc(CN(C)C)c4)C3)n3ccccc23)c1` [Compound 5-31] had a half-inhibitory concentration (IC50) of 100 to 500 nM. The figure for `COc1cccc(-c2nc([C@@H]3CCCN(C(=O)Nc4ccc5c(c4)CCC5)C3)n3ccccc23)c1` [Compound 5-32] is 100 to 500 nM; for `COc1cccc(-c2nc([C@@H]3CCCN(C(=O)Nc4ccccc4C(=O)N(C)C)C3)n3ccccc23)c1` [Compound 5-33] it is 1000 to 3000 nM. The figure for `COc1cccc(-c2nc([C@@H]3CCCN(C(=O)Nc4ccccc4C(C)=O)C3)n3ccccc23)c1` [Compound 5-34] is 1000 to 3000 nM; for `COc1cccc(-c2nc([C@@H]3CCCN(C(=O)Nc4cccc5c4OCO5)C3)n3ccccc23)c1` [Compound 5-35] it is under 100 nM.

With `COc1cccc(-c2nc([C@@H]3CCCN(C(=O)Nc4cccc(N(C)C)c4)C3)n3ccccc23)c1` [Compound 5-36], the IC50 lay within 100 to 500 nM. Regarding `COc1cccc(-c2nc([C@@H]3CCCN(C(=O)Nc4ccccc4N(C)C)C3)n3ccccc23)c1` [Compound 5-37], the IC50 is 100 to 500 nM. `COc1cccc(-c2nc([C@@H]3CCCN(C(=O)NC4CCc5ccccc5C4)C3)n3ccccc23)c1` (stereo partly drawn) [Compound 5-38]: the concentration for half-maximal inhibition (IC50) lay in the range of 100 to 500 nM. The figure for `COc1cccc(-c2nc([C@@H]3CCCN(C(=O)Nc4cccc5ccccc45)C3)n3ccccc23)c1` [Compound 5-39] is 100 to 500 nM; for `COc1cccc(-c2nc([C@@H]3CCCN(C(=O)Nc4ccc5cccnc5c4)C3)n3ccccc23)c1` [Compound 5-40] it is under 100 nM. The figure for `COCCNC(=O)N1CCC[C@@H](c2nc(-c3cccc(OC)c3)c3ccccn23)C1` [Compound 5-41] is 100 to 500 nM; for `COc1cccc(-c2nc([C@@H]3CCCN(C(=O)Nc4ccc5nc(C(C)(C)C)[nH]c5c4)C3)n3ccccc23)c1` [Compound 5-42] it is under 100 nM.

Take `COc1cccc(-c2nc([C@@H]3CCCN(C(=O)NC4CCCCC4)C3)n3ccccc23)c1` [Compound 5-43]: the IC50 lay in the range of 100 to 500 nM.

In turn, `COc1cccc(-c2nc([C@@H]3CCCN(C(=O)Nc4ccn(C)n4)C3)n3ccccc23)c1` [Compound 5-44] came in with a 50% inhibitory concentration (IC50) of under 100 nM. For `COc1cccc(-c2nc([C@@H]3CCCN(C(=O)NCc4nccs4)C3)n3ccccc23)c1` [Compound 5-45] the value was under 100 nM; for `COc1cccc(-c2nc([C@@H]3CCCN(C(=O)NCCN4CCCCC4)C3)n3ccccc23)c1` [Compound 5-46], 500 to 1000 nM; for `COc1cccc(-c2nc([C@@H]3CCCN(C(=O)Nc4ccc5c(c4)CCC(C)(C)O5)C3)n3ccccc23)c1` [Compound 5-47], under 100 nM. For `COc1cccc(-c2nc([C@@H]3CCCN(C(=O)NC4CCS(=O)(=O)CC4)C3)n3ccccc23)c1` [Compound 5-48] the value was 100 to 500 nM. For `CCOCn1cc(NC(=O)N2CCC[C@@H](c3nc(-c4cccc(OC)c4)c4ccccn34)C2)cn1` [Compound 5-49] the value was under 100 nM. Compound `COc1cccc(-c2nc([C@@H]3CCCN(C(=O)Nc4onc(C)c4C)C3)n3ccccc23)c1` [Compound 5-50] displayed an IC50 of under 100 nM.

On to `COc1cccc(-c2nc([C@@H]3CCCN(C(=O)Nc4ccc5c(c4)ncn5C)C3)n3ccccc23)c1` [Compound 5-51], for which the IC50 is under 100 nM.

On to `COc1cccc(-c2nc([C@@H]3CCCN(C(=O)NCCS(C)(=O)=O)C3)n3ccccc23)c1` [Compound 5-52], for which the IC50 is 100 to 500 nM. For the compound `COc1cccc(-c2nc([C@@H]3CCCN(C(=O)Nc4ccc5c(c4)CN(C)C5)C3)n3ccccc23)c1` [Compound 5-53], the IC50 was under 100 nM. For the compound `CCc1csc(NC(=O)N2CCC[C@@H](c3nc(-c4cccc(OC)c4)c4ccccn34)C2)n1` [Compound 5-54], the IC50 was 500 to 1000 nM. In the case of `COc1cccc(-c2nc([C@@H]3CCCN(C(=O)NC4(c5ccccc5)CC4)C3)n3ccccc23)c1` [Compound 5-55], the IC50 is under 100 nM. For `COc1cccc(-c2nc([C@@H]3CCCN(C(=O)N[C@H]4CC[C@@H](O)CC4)C3)n3ccccc23)c1` [Compound 5-56] the value was 100 to 500 nM; for `COc1cccc(-c2nc([C@@H]3CCCN(C(=O)Nc4ccc5c(c4)COCO5)C3)n3ccccc23)c1` [Compound 5-57], under 100 nM; for `COc1ccc(CNC(=O)N2CCC[C@@H](c3nc(-c4cccc(OC)c4)c4ccccn34)C2)cc1` [Compound 5-58], under 100 nM. `COc1cccc(-c2nc([C@@H]3CCCN(C(=O)Nc4cc(C)nn4C)C3)n3ccccc23)c1` [Compound 5-59] yielded an IC50 of under 100 nM.

`COc1cccc(-c2nc([C@@H]3CCCN(C(=O)NCc4ccccc4)C3)n3ccccc23)c1` [Compound 5-60] showed an IC50 of under 100 nM.

For the compound `COc1cccc(-c2nc([C@@H]3CCCN(C(=O)Nc4cccc(-c5csc(C)n5)c4)C3)n3ccccc23)c1` [Compound 5-61], the half-inhibitory concentration (IC50) was under 100 nM. The figure for `COc1cccc(-c2nc([C@@H]3CCCN(C(=O)Nc4cnc5ccccn45)C3)n3ccccc23)c1` [Compound 5-62] is under 100 nM; for `COc1cccc(-c2nc([C@@H]3CCCN(C(=O)Nc4ccc(CC#N)cc4)C3)n3ccccc23)c1` [Compound 5-63] it is under 100 nM; for `COc1cccc(-c2nc([C@@H]3CCCN(C(=O)NC4CCN(C)CC4)C3)n3ccccc23)c1` [Compound 5-64] it is 500 to 1000 nM. The figure for `COc1cccc(-c2nc([C@@H]3CCCN(C(=O)Nc4ccc5ncsc5c4)C3)n3ccccc23)c1` [Compound 5-65] is under 100 nM. For `COc1cccc(-c2nc([C@@H]3CCCN(C(=O)Nc4nocc4C)C3)n3ccccc23)c1` [Compound 5-66] the value was under 100 nM. On to `COc1cccc(-c2nc([C@@H]3CCCN(C(=O)Nc4nccs4)C3)n3ccccc23)c1` [Compound 5-67], for which the IC50 was under 100 nM. In the case of `CCn1cc(CNC(=O)N2CCC[C@@H](c3nc(-c4cccc(OC)c4)c4ccccn34)C2)cn1` [Compound 5-68], the IC50 is under 100 nM.

Take `COc1cccc(-c2nc([C@@H]3CCCN(C(=O)Nc4cc(C#N)on4)C3)n3ccccc23)c1` [Compound 5-69]: the IC50 was under 100 nM.

The compound `COc1cccc(-c2nc([C@@H]3CCCN(C(=O)N[C@H]4CC[C@H](O)CC4)C3)n3ccccc23)c1` [Compound 5-70] registered an IC50 of under 100 nM. For `COc1cccc(-c2nc([C@@H]3CCCN(C(=O)NC4CC(C)C4)C3)n3ccccc23)c1` (stereo partly drawn) [Compound 5-71] the value was under 100 nM.
